Entries after “also recorded” stand apart in the source; their conditions may differ.
Tested on: rats exposed to hypercarbic gas
Test: Hypercarbic gas (20% CO2) challenge: MAP, HR, locomotor activity, fecal pellets
Format: in vivo, rat
Method: Prior to surgery, rats were anesthetised with a nose cone connected to an isoflurane system (MGX Research Machine; Vetamic, Rossville Ind., USA) during the surgery. […] Briefly, cardiovascular responses were measured by a femoral arterial line connected to a telemetric probe that contained a pressure transducer [Cat. no. C50-PXT, Data Sciences International (DSI), St. Paul, Minn., USA]. DSI dataquest software was used to monitor and record MAP and HR. For the duration of each experiment, MAP and HR were recorded continuously in freely moving conscious rats. Data were analyzed during the period 5 min prior to, 5 min during, and 5 min following the gas challenges. The data reported are changes in HR and MAP, expressed in 1 min bins, relative to the average of the baseline measurement (t−5 min to t−1 min) from each rat.
Flow cages (12 in. width×12 in. height×24 in. length) were custom built using Plexiglas®. When the lid of the cage was latched, gases could only enter the cage through an inlet connector (for the gas infusion) and could only exit the cage through an outlet connector. The gas flow into the cages was controlled using a 2-stage regulator (Praxair, Inc., Danbury, Conn., USA) at a pressure of 0.6 Bar.
On day 1, rats (n=3/group) were selected from their home cages and placed into experimental cages containing atmospheric air. […] Fecal pellets were counted in cages at the end of gas challenges. In order to assess anxiety-like behavioural responses following exposure to hypercarbic gas, rats were immediately transferred to an adjacent room and place in the center square of an open-field box for a 5 min test. On day 2, the experiment was repeated, but the treatments were reversed for each rat. For instance, rats that received atmospheric gas challenge on day 1 received the hypercapnic gas challenge on day 2.
All rats received hypercarbic gas infusions as described in detail in Experiment 11. […] Blood pressure, heart rate, locomotor activity, number of fecal pellets and anxiety-like behavior were assessed as described in Experiment 11.
Dependent variables for analyses of cardiovascular responses (HR, MAP) and locomotor activity were analysed using a […], using gas infusion as the between-subjects factor and time as a within-subjects factor. Dependent variables for the number of fecal pellets and open-field anxiety test (i.e., time spent in each section, line crossings) were analysed using a one-way ANOVA with gas infusion in Experiment 11 and drug treatment in Experiment 12 as the between-subjects factors. […] Within-subjects comparisons were also made on the MAP and HR measures using a Dunnett's test for multiple comparisons with a single control using the 5 Min baseline measurement as the control. The alpha level was set at 0.05 in all cases.

[1] = 20% CO2, 30 mg/kg i.p. 30 min prior

Compound: Cc1nc2ccc(NC(=O)Nc3ccnc4cccnc34)cc2o1 [SB334867, N-(2-Methyl-6-benzoxazolyl)-N′-1,5-naphthyridin-4-yl urea]
- hypercarbic gas-induced changes in MAP (pressor response) (20% CO2/normoxic gas 5 min, 30 mg/kg i.p. 30 min prior): attenuated
- hypercarbic gas-induced bradycardia (20% CO2/normoxic gas 5 min, 30 mg/kg i.p. 30 min prior, 30 mg/kg): without altering; also recorded: had no effect
- hypercarbic gas-induced increase in numbers of fecal pellets [1]: attenuated
- locomotor responses over time prior to, during or after hypercarbic gas [1]: Neither the vehicle nor SB334867 treated rats had a change in locomotor responses
- locomotor activity prior to hypercarbic gas infusion (baseline, 30 mg/kg i.p., vs vehicle-treated rats): higher

Reference: US8877773B2, “Methods for treating chronic obstructive pulmonary disease” (Indiana University Research and Technology Corporation, priority 2009, dated 2014)
